For assay [1], the target named is T1, ΔF508-CFTR (Homo sapiens, UniProt P13569, DEL508-508).
T1 construct: host or cells: CFBE41o-, doxycycline-inducible
Kind of assay: CFTR cell surface levels using HRP-tagged ΔF508-CFTR expressing CFBE cells, intrinsic corrector capacity. The assay is classed as cell-based. Conditions: for EC50: read-out: EC50. A digest of the protocol: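 Here the cells express ΔF508-CFTR with horseradish peroxidase inserted in extracellular loop 4, so only rescued channel at the surface gives luminescent signal. Compounds act on their own, 20 h at the reduced temperature of 33 °C; values are percent activity relative to DMSO and a 3 μM corrector.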

Assay [2] concerns the target T1, ΔF508-CFTR. Kind of assay: CFTR cell surface levels using HRP-tagged ΔF508-CFTR expressing CFBE cells, in the presence of a co-corrector. The assay is classed as cell-based. To be noted: HRP-tagged ΔF508-CFTR expressing CFBE cells, in the presence of 3 μM co-corrector; for EC50: read-out: EC50. A digest of the protocol:
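Cells were seeded with 0.5 μg/mL doxycycline and held 68 h at 37 °C. Test compounds plus 3 μM co-corrector (final 0.1% DMSO) were then added for 20 h at 33 °C. Washed cells received HRP substrate, and luminescence was normalized between DMSO and 3 μM co-corrector controls.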

Setting [3] is: HRP-tagged ΔF508-CFTR expressing CFBE cells, intrinsic corrector capacity (no co-corrector), 33° C., 20 hours.
Where [4] appears, read: HRP-tagged ΔF508-CFTR CFBE41o- cells, compounds alone (intrinsic corrector capacity), 20 hours at 33° C., positive control 3 μM corrector.
Setting [5] is: HRP-tagged ΔF508-CFTR CFBE41o- cells, compounds alone (intrinsic corrector capacity), 20 hours at 33° C.
Where [6] appears, read: HRP-tagged ΔF508-CFTR CFBE cells, compound alone (intrinsic corrector capacity), 20 hours at 33° C.

T1 sequence (P13569 with tags, fused parts or gaps DEL508-508): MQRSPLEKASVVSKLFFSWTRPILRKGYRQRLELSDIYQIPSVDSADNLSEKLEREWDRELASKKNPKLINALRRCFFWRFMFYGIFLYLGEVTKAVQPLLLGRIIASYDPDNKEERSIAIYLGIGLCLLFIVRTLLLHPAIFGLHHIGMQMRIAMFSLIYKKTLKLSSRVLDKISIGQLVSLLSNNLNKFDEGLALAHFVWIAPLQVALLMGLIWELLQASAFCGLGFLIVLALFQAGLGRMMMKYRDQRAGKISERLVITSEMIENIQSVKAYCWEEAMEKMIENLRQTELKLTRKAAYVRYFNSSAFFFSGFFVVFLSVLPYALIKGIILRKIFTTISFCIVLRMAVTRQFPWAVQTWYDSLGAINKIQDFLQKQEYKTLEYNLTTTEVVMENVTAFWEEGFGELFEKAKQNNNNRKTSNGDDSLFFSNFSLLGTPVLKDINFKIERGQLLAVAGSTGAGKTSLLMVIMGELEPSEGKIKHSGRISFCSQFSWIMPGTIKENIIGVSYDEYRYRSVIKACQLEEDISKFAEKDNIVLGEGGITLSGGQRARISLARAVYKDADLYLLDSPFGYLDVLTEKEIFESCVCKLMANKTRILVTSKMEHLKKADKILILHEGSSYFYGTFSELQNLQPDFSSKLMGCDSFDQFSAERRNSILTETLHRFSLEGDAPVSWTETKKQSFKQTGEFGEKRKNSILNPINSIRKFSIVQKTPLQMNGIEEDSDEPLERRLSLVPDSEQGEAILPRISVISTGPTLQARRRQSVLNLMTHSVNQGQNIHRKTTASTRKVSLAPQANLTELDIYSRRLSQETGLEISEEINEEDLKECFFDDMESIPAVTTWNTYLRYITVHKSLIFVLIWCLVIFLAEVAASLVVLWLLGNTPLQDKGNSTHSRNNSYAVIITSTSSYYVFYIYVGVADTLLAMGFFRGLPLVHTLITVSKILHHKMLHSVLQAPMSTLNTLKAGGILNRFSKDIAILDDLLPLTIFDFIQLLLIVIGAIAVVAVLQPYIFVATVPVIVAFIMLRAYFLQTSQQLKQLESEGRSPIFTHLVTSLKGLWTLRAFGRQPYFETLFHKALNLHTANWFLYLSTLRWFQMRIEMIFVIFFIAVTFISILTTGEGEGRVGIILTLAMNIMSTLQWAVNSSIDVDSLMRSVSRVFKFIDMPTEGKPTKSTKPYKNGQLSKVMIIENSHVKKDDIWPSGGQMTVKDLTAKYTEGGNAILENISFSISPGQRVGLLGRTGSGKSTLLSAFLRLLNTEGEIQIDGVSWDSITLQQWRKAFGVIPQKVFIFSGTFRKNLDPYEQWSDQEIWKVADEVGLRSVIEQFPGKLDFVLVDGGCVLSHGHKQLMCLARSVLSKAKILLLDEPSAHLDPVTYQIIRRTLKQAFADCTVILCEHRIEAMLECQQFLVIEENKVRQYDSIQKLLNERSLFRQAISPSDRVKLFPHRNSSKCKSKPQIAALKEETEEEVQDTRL

Broadly, the EC50 is the concentration that produces a half-maximal response. As for `COC[C@@H]1CCN(CC2CCN(c3cc(C(=O)O)nc4c3c(C3CCC3)nn4-c3ccccc3)CC2)C1` [compound 802, 3-cyclobutyl-4-(4-{[(3R)-3-(methoxymethyl)pyrrolidin-1-yl]methyl}piperidin-1-yl)-1-phenyl-1H-pyrazolo[3,4-b]pyridine-6-carboxylic acid], the “% Activation” value at ΔF508-CFTR [1] (setting [3]) is 218%; on ΔF508-CFTR [2], 439.7%. For the same molecule, the EC50 on ΔF508-CFTR [1] (setting [3]) worked out at 462 nM; on ΔF508-CFTR [2], 771 nM.

For `O=C(O)c1cc(N2CCCOCC2)c2c(C3CCC3)nn(-c3ccccc3)c2n1` [compound 545, 3-cyclobutyl-4-(1,4-oxazepan-4-yl)-1-phenyl-1H-pyrazolo[3,4-b]pyridine-6-carboxylic acid], the results for the “% Activation” value at ΔF508-CFTR [1] (setting [3]) and at ΔF508-CFTR [2] were 109.4% and 247.05%, respectively. For the same molecule, the EC50 on ΔF508-CFTR [1] (setting [3]) came out at 1150 nM; on ΔF508-CFTR [2], 563 nM.

`Cc1nn(-c2ccccc2)c2nc(C(=O)O)cc(-c3ccc(NC4CCOCC4)cc3)c12` [compound 145, 3-methyl-4-{4-[(oxan-4-yl)amino]phenyl}-1-phenyl-1H-pyrazolo[3,4-b]pyridine-6-carboxylic acid]: the “% Activation” value at ΔF508-CFTR [1] (setting [4]) is listed as 190.2%; at ΔF508-CFTR [2], 368.6%. Further, the EC50 came to 1430 nM at ΔF508-CFTR [1] (setting [5]) and 850 nM on ΔF508-CFTR [2].

For `Cc1nn(-c2ccc(F)cc2F)c2nc(C(=O)O)cc(-c3ccc(N4CCOCC4)nc3)c12` [compound 104, 1-(2,4-difluorophenyl)-3-methyl-4-[6-(morpholin-4-yl)pyridin-3-yl]-1H-pyrazolo[3,4-b]pyridine-6-carboxylic acid], the “% Activation” value on ΔF508-CFTR [1] (setting [4]) was 130.4%; on ΔF508-CFTR [2], 308.55%. Moreover, the figures for the EC50 at ΔF508-CFTR [1] (setting [5]) and on ΔF508-CFTR [2] were 1240 nM and 1010 nM, respectively.

Turning to `COCCN(C)c1ccc(-c2cc(C(=O)O)nc3c2c(C(C)C)nn3-c2cccc(N3CCC3)c2)cn1` [compound 239, 1-[3-(azetidin-1-yl)phenyl]-4-{6-[(2-methoxyethyl)(methyl)amino]pyridin-3-yl}-3-(propan-2-yl)-1H-pyrazolo[3,4-b]pyridine-6-carboxylic acid], the “% Activation” value stood at 327.55% at ΔF508-CFTR [1] (setting [4]) and 495.85% at ΔF508-CFTR [2]. For the same molecule, the values for the EC50 at ΔF508-CFTR [1] (setting [5]) and at ΔF508-CFTR [2] were 875 nM and 713 nM, respectively.

For `O=C(O)c1cc(OC2CCCCCC2)c2c(C3CCC3)nn(-c3ccccc3)c2n1` [compound 648, 3-cyclobutyl-4-(cycloheptyloxy)-1-phenyl-1H-pyrazolo[3,4-b]pyridine-6-carboxylic acid], on ΔF508-CFTR [1] (setting [3]), the “% Activation” value is listed as 90.745% and the EC50 stood at 263 nM. Further, on ΔF508-CFTR [2], the “% Activation” value turned out to be 296.1% and the EC50 turned out to be 203 nM.

Regarding `O=C(O)c1cc(N2CCN(CC(=O)N3CCOCC3)CC2)c2c(C3CCC3)nn(-c3ccccc3)c2n1` [compound 474, 3-cyclobutyl-4-{4-[2-(morpholin-4-yl)-2-oxoethyl]piperazin-1-yl}-1-phenyl-1H-pyrazolo[3,4-b]pyridine-6-carboxylic acid], the “% Activation” value at ΔF508-CFTR [1] (setting [3]) came to 125.3%; on ΔF508-CFTR [2], 301.35%. Besides, the EC50 on ΔF508-CFTR [1] (setting [3]) was 3340 nM; at ΔF508-CFTR [2], 2250 nM.

As for `N#CC1CCN(c2ccc(-c3cc(C(=O)O)nc4c3c(OC3COC3)nn4-c3ccccc3)cn2)CC1` [compound 592, 4-[6-(4-cyanopiperidin-1-yl)pyridin-3-yl]-3-[(oxetan-3-yl)oxy]-1-phenyl-1H-pyrazolo[3,4-b]pyridine-6-carboxylic acid], on ΔF508-CFTR [1] (setting [3]), the “% Activation” value is reported as 116.6% and the concentration giving a half-maximal response (EC50) stood at 1160 nM. Also, at ΔF508-CFTR [2], the “% Activation” value worked out at 279% and the EC50 turned out to be 584 nM.

As to `Cc1nn(-c2ccccc2)c2nc(C(=O)O)cc(OCC(=O)N3CCCCC3)c12` [compound 383, 3-methyl-4-[2-oxo-2-(piperidin-1-yl)ethoxy]-1-phenyl-1H-pyrazolo[3,4-b]pyridine-6-carboxylic acid], the “% Activation” value at ΔF508-CFTR [1] (setting [4]) was 16.587%; at ΔF508-CFTR [2], 129.7%. In addition, the half-maximal effective concentration (EC50) on ΔF508-CFTR [1] (setting [5]) and at ΔF508-CFTR [2] was 5010 nM each time.

With `O=C(O)c1cc(N2CCCC3(CC3)C2)c2c(C3CCC3)nn(-c3ccccc3)c2n1` [compound 419, 4-(5-azaspiro[2.5]octan-5-yl)-3-cyclobutyl-1-phenyl-1H-pyrazolo[3,4-b]pyridine-6-carboxylic acid], on ΔF508-CFTR [1] (setting [3]), the “% Activation” value came out at 136% and the EC50 worked out at 983 nM. For the same molecule, on ΔF508-CFTR [2], the “% Activation” value is 293.9% and the EC50 turned out to be 509 nM.

For the molecule `O=C(O)c1cc(N2CC3(CCOC3)C2)c2c(C3CCC3)nn(-c3ccccc3)c2n1` [compound 534, 3-cyclobutyl-4-(6-oxa-2-azaspiro[3.4]octan-2-yl)-1-phenyl-1H-pyrazolo[3,4-b]pyridine-6-carboxylic acid], on ΔF508-CFTR [1] (setting [3]), the “% Activation” value came out at 111% and the EC50 amounted to 3330 nM. Besides, on ΔF508-CFTR [2], the “% Activation” value amounted to 281.95% and the EC50 stood at 893 nM.

As to `CN1CCC2(CC1)CCN(c1cc(C(=O)O)nc3c1c(C1CCC1)nn3-c1ccc(F)cc1)CC2` [compound 928, 3-cyclobutyl-1-(4-fluorophenyl)-4-(9-methyl-3,9-diazaspiro[5.5]undecan-3-yl)-1H-pyrazolo[3,4-b]pyridine-6-carboxylic acid], on ΔF508-CFTR [1] (setting [6]), the “% Activation” value is 284.7% and the EC50 was 4030 nM. Further, on ΔF508-CFTR [2], the “% Activation” value amounted to 362.2% and the EC50 amounted to 2410 nM.

On to `O=C(O)c1cc(N2CCC3(CC2)CCN(C2COC2)CC3)c2c(C3CCC3)nn(-c3ccc(F)cc3)c2n1` [compound 904, 3-cyclobutyl-1-(4-fluorophenyl)-4-[9-(oxetan-3-yl)-3,9-diazaspiro[5.5]undecan-3-yl]-1H-pyrazolo[3,4-b]pyridine-6-carboxylic acid], for which, at ΔF508-CFTR [1] (setting [3]), the “% Activation” value was 200.1% and the concentration giving a half-maximal response (EC50) turned out to be 237 nM. Besides, on ΔF508-CFTR [2], the “% Activation” value came to 372.85% and the EC50 is 102 nM.

Turning to `CN(C[C@H]1CCN(c2cc(C(=O)O)nc3c2c(C2CCC2)nn3-c2ccccc2)C1)C(=O)OC(C)(C)C` [compound 675, 4-[(3S)-3-{[(tert-butoxycarbonyl)(methyl)amino]methyl}pyrrolidin-1-yl]-3-cyclobutyl-1-phenyl-1H-pyrazolo[3,4-b]pyridine-6-carboxylic acid], the figures for the “% Activation” value at ΔF508-CFTR [1] (setting [3]) and on ΔF508-CFTR [2] were 118.8% and 303.65%, respectively. The EC50 came out at 659 nM at ΔF508-CFTR [1] (setting [3]) and 1050 nM at ΔF508-CFTR [2].

Take `CCN(CC)C1CCN(c2cc(C(=O)O)nc3c2c(C2CCC2)nn3-c2ccccc2)CC1` [compound 689, 3-cyclobutyl-4-[4-(diethylamino)piperidin-1-yl]-1-phenyl-1H-pyrazolo[3,4-b]pyridine-6-carboxylic acid]: on ΔF508-CFTR [1] (setting [3]), the “% Activation” value came out at 182.7% and the EC50 turned out to be 1570 nM. Further, on ΔF508-CFTR [2], the “% Activation” value is on record as 329% and the half-maximal effective concentration (EC50) was determined as 803 nM.

Turning to `Cc1nn(-c2ccccc2)c2nc(C(=O)O)cc(OCC3(CF)CC3)c12` [compound 387, 4-{[1-(fluoromethyl)cyclopropyl]methoxy}-3-methyl-1-phenyl-1H-pyrazolo[3,4-b]pyridine-6-carboxylic acid], the “% Activation” value at ΔF508-CFTR [1] (setting [4]) worked out at 65.365%; at ΔF508-CFTR [2], 224.5%. For the same molecule, the EC50 at ΔF508-CFTR [1] (setting [5]) and on ΔF508-CFTR [2] was 1670 nM each time.

The values above are taken from patent publication US9796711B2, “Substituted pyrazolo[3,4-b]pyridin-6-carboxylic acids and method of use” (AbbVie S.àr.l., priority 2015, dated 2017).
